Experiment [1] relates to constitutive active colorectal cancer cell (CRC) Wnt pathway. Put plainly: Cellular reporter assay, HCT116 cells stably transfected with Super TopFlash vector (HCT116-TOP), luciferase readout. Type of experiment: cell-based. The settings on record: Homo sapiens, HCT-116, 36 hours incubation, luciferase expression, average or median values. How it is done:
In order to discover and characterize small molecules which inhibit the constitutive active colorectal cancer cell (CRC) Wnt pathway, a cellular reporter assay was employed. The corresponding assay cell was generated by transfection of the colorectal cancer cell line HCT116 (ATCC, #CCL-247) with the Super TopFlash vector (Morin, Science 275, 1997, 1787-1790; Molenaar et al., Cell 86 (3), 1996, 391-399). The HCT116 cell line is cultivated at 37° C. and 5% CO2 in DMEM/F-12 (Life Technologies, #11320-074), supplemented with 2 mM glutamine, 20 mM HEPES, 1.4 mM pyruvate, 0.15% Na-bicarbonate and 10% foetal bovine serum (GIBCO, #10270), this cancer cell line is pathophysiological relevant since it carries a deletion of position S45 in the β-catenin gene, leading to constitutive active Wnt signaling. Stable transfectants were generated by cotransfection with pcDNA3 and selection of stable transfected cells with 1 mg/mL G418.
(§1) In preparation of the assay, the two cell lines were plated 24 hours before at 10000 cells per well of a 384 micro titre plate (MTP) in 30 μL growth medium. Selective inhibitory activity for small molecules on the mutated Wnt pathway was determined after parallel incubation of both (TOP and FOP) HCT116 reporter cell lines with a compound dilution series from 50 μM to 15 nM in steps of 3.16-fold dilutions in CAFTY buffer (130 mM NaCl, 5 mM KCl, 20 mM HEPES, 1 mM MgCl2, 5 mM NaHCO3, pH 7.4) containing 2 mM Ca^2+ and 0.01% BSA. The compounds were thereby serially prediluted in 100% DMSO and thereafter in addition 50 fold into the CAFTY compound dilution buffer (described above). From this dilution 10 μL were added to the cells in 30 μL growth medium and incubated for 36 hours at 37° C. and 5% CO2. Thereafter luciferase assay buffer (1:1 mixture of luciferase substrate buffer (20 mM Tricine, 2.67 mM MgSO4, 0.1 mM EDTA, 4 mM DTT, 270 μM Coenzyme A, 470 μM Luciferin, 530 μM ATP, ph adjusted to pH 7.8 with a sufficient volume of 5M NaOH) and Triton buffer (30 mL Triton X-100, 115 mL glycerol, 308 mg Dithiothreitol, 4.45 g Na2HPO4.2H2O, 3.03 g TRIS HCl, ad 1I H2O, pH 7.8) was added as equal volume to the compound solution on the cells to determine luciferase expression as a measure of Wnt signaling activity in a luminometer.
(In general: A reporter such as luciferase makes a cellular process visible.)

Experiment [2] relates to FOP control vector (randomized, non-functional sequence instead of functional TCF elements) in HCT116 cells. As to the kind of experiment: Control reporter assay, HCT116 cells stably transfected with FOP control vector (HCT116-FOP), luciferase readout. As to conditions: Homo sapiens, HCT-116, 36 hours incubation, luciferase expression, dilution series up to 50 μM. Type of experiment: cell-based. The procedure:
In a parallel approach, HCT116 cells were cotransfected with the FOP control vector and pcDNA3. The FOP vector is identical to the TOP construct, but it contains instead of functional TCF elements a randomized, non-functional sequence. For this transfection a stable transfected cell line was generated as well.
as §1

Bounds are passed on as bounds.

In the case of `COc1ncc(-c2ccc(NC(=O)c3ccc(OC(F)(F)F)c(NC(=O)CN4CCOCC4)c3)cc2)cn1` [Example 9, N-[4-(2-methoxypyrimidin-5-yl)phenyl]-3-[(morpholin-4-ylacetyl)amino]-4-(trifluoromethoxy)-benzamide], the 50% inhibitory concentration (IC50) is 0.41 µM in experiment [1] and not below 50 µM in experiment [2].

In the case of `O=C(Nc1ccc(-c2cccnc2F)cc1)c1ccc(Cl)c(NC(=O)C2(N3CCOCC3)CC2)c1` [Example 22, 4-chloro-N-[4-(2-fluoropyridin-3-yl)phenyl]-3-({[1-(morpholin-4-yl)cyclopropyl]carbonyl}amino)-benzamide], the IC50 in experiment [1] was 0.14 µM; in experiment [2], not below 50 µM.

As for `Cc1ccc(-c2ccc(NC(=O)c3ccc(OC(F)(F)F)c(NC(=O)CN4CCOCC4)c3)cc2)cn1` [Example 13, N-[4-(6-methylpyridin-3-yl)phenyl]-3-[(morpholin-4-ylacetyl)amino]-4-(trifluoromethoxy)benzamide], the values for the 50% inhibitory concentration (IC50) in experiment [1] and in experiment [2] were 0.557 µM and not below 50 µM, respectively.

For `CN(C)c1ncc(-c2ccc(NC(=O)c3ccc(OC(F)(F)F)c(NC(=O)CN4CCOCC4)c3)cc2)cn1` [Example 10, N-{4-[2-(dimethylamino)pyrimidin-5-yl]phenyl}-3-[(morpholin-4-ylacetyl)amino]-4-(trifluoromethoxy)benzamide], the half-maximal inhibitory concentration (IC50) in experiment [1] is 0.0609 µM; in experiment [2] it was not below 50 µM.

`COc1ccc(-c2ccc(NC(=O)c3ccc(OC(F)(F)F)c(NC(=O)CN4CCOCC4)c3)cc2)cn1` [Example 15, N-[4-(6-methoxypyridin-3-yl)phenyl]-3-[(morpholin-4-ylacetyl)amino]-4-(trifluoromethoxy)benzamide]: the values for the 50% inhibitory concentration (IC50) in experiment [1] and in experiment [2] were 0.545 µM and not below 50 µM, respectively.

As to `COc1ccc(NC(=O)c2ccc(-c3cncnc3)cc2)cc1NC(=O)CN1CCOCC1` [Example 2, N-{4-methoxy-3-[(morpholin-4-ylacetyl)amino]phenyl}-4-(pyrimidin-5-yl)benzamide], the half-maximal inhibitory concentration (IC50) in experiment [1] was 3.11 µM; in experiment [2], not below 50 µM.

Take `O=C(CN1CCOCC1)Nc1cc(C(=O)Nc2ccc(-c3cnc(N4CCC4)nc3)cc2)ccc1OC(F)(F)F` [Example 11, N-{4-[2-(azetidin-1-yl)pyrimidin-5-yl]phenyl}-3-[(morpholin-4-ylacetyl)amino]-4-(trifluoromethoxy)benzamide]: the IC50 in experiment [1] is 0.2 µM; in experiment [2], not below 50 µM.

As for `Nc1ccc(-c2ccc(NC(=O)c3ccc(OC(F)(F)F)c(NC(=O)CN4CCOCC4)c3)cc2)cn1` [Example 7, N-[4-(6-aminopyridin-3-yl)phenyl]-3-[(morpholin-4-ylacetyl)amino]-4-(trifluoromethoxy)benzamide], the IC50 in experiment [1] was 0.0228 µM; in experiment [2], not below 50 µM.

As for `Cc1ccc(C(=O)Nc2ccc(-c3cccnc3F)cc2)cc1NC(=O)C1(N2CCOCC2)CC1` [Example 25, N-[4-(2-fluoropyridin-3-yl)phenyl]-4-methyl-3-({[1-(morpholin-4-yl)cyclopropyl]carbonyl}-amino)benzamide], the results for the IC50 in experiment [1] and in experiment [2] were 0.0207 µM and not below 50 µM, respectively.

Take `Cc1ccc(C(=O)Nc2ccc(-c3cccnc3)cc2)cc1NC(=O)C1(N2CCOCC2)CC1` [Example 24, 4-methyl-3-({[1-(morpholin-4-yl)cyclopropyl]carbonyl}amino)-N-[4-(pyridin-3-yl)phenyl]benzamide]: the values for the IC50 in experiment [1] and in experiment [2] were 0.0341 µM and not below 50 µM, respectively.

Take `O=C(CN1CCOCC1)Nc1cc(C(=O)Nc2ccc(-c3ccc(CO)nc3)cc2)ccc1OC(F)(F)F` [Example 14, N-{4-[6-(hydroxymethyl)pyridin-3-yl]phenyl}-3-[(morpholin-4-ylacetyl)amino]-4-(trifluoromethoxy)benzamide]: the figures for the IC50 in experiment [1] and in experiment [2] were 0.377 µM and not below 50 µM, respectively.

Take `COc1ccc(NC(=O)c2ccc(-c3cnc(N)nc3)cc2)cc1NC(=O)CN1CCOCC1` [Example 37, 4-(2-aminopyrimidin-5-yl)-N-{4-methoxy-3-[(morpholin-4-ylacetyl)amino]phenyl} benzamide]: the IC50 in experiment [1] is 23 µM; in experiment [2] it was not below 50 µM.

Regarding `Cn1cc(-c2ccc(NC(=O)c3ccc(OC(F)(F)F)c(NC(=O)CN4CCOCC4)c3)cc2)cn1` [Example 5, N-[4-(1-methyl-1H-pyrazol-4-yl)phenyl]-3-[(morpholin-4-ylacetyl)amino]-4-(trifluoromethoxy)-benzamide], the IC50 in experiment [1] was 0.16 µM; in experiment [2], not below 50 µM.

`COc1ncccc1-c1ccc(NC(=O)c2ccc(OC(F)(F)F)c(NC(=O)CN3CCOCC3)c2)cc1` [Example 17, N-[4-(2-methoxypyridin-3-yl)phenyl]-3-[(morpholin-4-ylacetyl)amino]-4-(trifluoromethoxy)-benzamide]: the figures for the IC50 in experiment [1] and in experiment [2] were 0.285 µM and not below 50 µM, respectively.

As for `CN1CCN(CC(=O)Nc2cc(C(=O)Nc3ccc(-c4cccnc4F)cc3)ccc2OC(F)(F)F)CC1` [Example 31, N-[4-(2-fluoropyridin-3-yl)phenyl]-3-{[(4-methylpiperazin-1-yl)acetyl]amino}-4-(trifluoromethoxy)benzamide], the IC50 in experiment [1] was determined as 0.0318 µM; in experiment [2], 38.5 µM.

Consider `O=C(CN1CCOCC1)Nc1cc(C(=O)Nc2ccc(-c3cccnc3F)cc2)ccc1OC(F)F` [Example 39, 4-(difluoromethoxy)-N-[4-(2-fluoropyridin-3-yl)phenyl]-3-[(morpholin-4-ylacetyl)amino] benzamide], for which the IC50 in experiment [1] was 5.4 µM; in experiment [2] it was not below 50 µM.

As for `O=C(Nc1ccc(-c2cccnc2F)cc1)c1ccc(F)c(NC(=O)C2(N3CCOCC3)CC2)c1` [Example 26, 4-fluoro-N-[4-(2-fluoropyridin-3-yl)phenyl]-3-({[1-(morpholin-4-yl)cyclopropyl]carbonyl}-amino)benzamide], the values for the IC50 in experiment [1] and in experiment [2] were 0.014 µM and not below 50 µM, respectively.

For the compound `COc1ccc(NC(=O)c2ccc(-c3cnn(C)c3)cc2)cc1NC(=O)CN1CCOCC1` [Example 36, N-{4-methoxy-3-[(morpholin-4-ylacetyl)amino]phenyl}-4-(1-methyl-1H-pyrazol-4-yl)benzamide], the figures for the IC50 in experiment [1] and in experiment [2] were 15.6 µM and not below 50 µM, respectively.

Turning to `Nc1ncc(-c2ccc(NC(=O)c3ccc(OC(F)(F)F)c(NC(=O)C4(N5CCOCC5)CC4)c3)cc2)cn1` [Example 19, N-[4-(2-aminopyrimidin-5-yl)phenyl]-3-({[1-(morpholin-4-yl)cyclopropyl]carbonyl}amino)-4-(trifluoromethoxy)benzamide], the 50% inhibitory concentration (IC50) in experiment [1] was 0.0032 µM; in experiment [2], not below 50 µM.

Regarding `CN1CCN(CC(=O)Nc2cc(C(=O)Nc3ccc(-c4cnc(N)nc4)cc3)ccc2OC(F)(F)F)CC1` [Example 33], the values for the IC50 in experiment [1] and in experiment [2] were 0.0555 µM and not below 50 µM, respectively.

For `CN1CCN(CC(=O)Nc2cc(C(=O)Nc3ccc(-c4cncnc4)cc3)ccc2OC(F)(F)F)CC1` [Example 32, 3-{[(4-methylpiperazin-1-yl)acetyl]amino}-N-[4-(pyrimidin-5-yl)phenyl]-4-(trifluoromethoxy)benzamide], the IC50 in experiment [1] worked out at 0.0475 µM; in experiment [2] it was 40 µM.

Regarding `O=C(CN1CCOCC1)Nc1cc(C(=O)Nc2ccc(-c3cccnc3)cc2)ccc1OC1CC1` [Example 35, 4-(cyclopropyloxy)-3-[(morpholin-4-ylacetyl)amino]-N-[4-(pyridin-3-yl)phenyl]benzamide], the IC50 was 0.023 µM in experiment [1] and not below 50 µM in experiment [2].

Take `COc1ccc(NC(=O)c2ccc(-c3ccc(N)nc3)cc2)cc1NC(=O)CN1CCOCC1` [Example 1, 4-(6-aminopyridin-3-yl)-N-{4-methoxy-3-[(morpholin-4-ylacetyl)amino]phenyl}benzamide]: the half-maximal inhibitory concentration (IC50) is 0.625 µM in experiment [1] and not below 50 µM in experiment [2].

As to `CN1CCN(CC(=O)Nc2cc(C(=O)Nc3ccc(-c4ccc(N)nc4)cc3)ccc2OC(F)(F)F)CC1` [Example 34, N-[4-(6-aminopyridin-3-yl)phenyl]-3-{[(4-methylpiperazin-1-yl)acetyl]amino}-4-(trifluoromethoxy)-benzamide], the IC50 worked out at 0.0253 µM in experiment [1] and 28 µM in experiment [2].

One may read the IC50 as the point on the concentration scale where inhibition reaches its midpoint. Read a low IC50 as greater potency.

Source of the values: US20180042931A1 (Bayer Pharma Aktiengesellschaft, priority 2015, published 2018).
